Reference: ChEMBL document CHEMBL3822390, “Synthesis, characterization and anti-cancer activity of a peptide nucleolipid bioconjugate” (2016)

How the values were obtained:
Type in all cases: functional
[1] = Cytotoxicity against human BT549 cells assessed as cell growth at 10 uM after 48 hrs by SRB assay; conditions: BT-549, 48 h, read-out: Activity
[2] = Cytotoxicity against human LOXIMVI cells assessed as cell growth at 10 uM after 48 hrs by SRB assay; conditions: LOX IMVI, read-out: Activity
K562 = assay: Cytotoxicity against human K562 cells assessed as cell growth at 10 uM after 48 hrs by SRB assay; conditions: K562, 48 h, read-out: Activity
NCI-H522 [3] = assay: Cytotoxicity against human NCI-H522 cells assessed as cell growth at 10 uM after 48 hrs by SRB assay; conditions: NCI-H522, 48 h, read-out: Activity
MDA-MB-231 [4] = assay: Cytotoxicity against human MDA-MB-231 cells assessed as cell growth at 10 uM after 48 hrs by SRB assay; conditions: MDA-MB-231, 48 h, read-out: Activity
NCI-H226 = assay: Cytotoxicity against human NCI-H226 cells assessed as cell mortality at 10 uM after 48 hrs by SRB assay; conditions: NCI-H226, 48 h
[5] = Cytotoxicity against human DU145 cells assessed as cell growth at 10 uM after 48 hrs by SRB assay; conditions: DU-145, 48 h, read-out: Activity
[6] = Cytotoxicity against human OVCAR3 cells assessed as cell growth at 10 uM after 48 hrs by SRB assay; conditions: OVCAR-3, 48 h, read-out: Activity
[7] = Cytotoxicity against human SF539 cells assessed as cell growth at 10 uM after 48 hrs by SRB assay; conditions: SF-539, 48 h, read-out: Activity
NCI-H23 = assay: Cytotoxicity against human NCI-H23 cells assessed as cell growth at 10 uM after 48 hrs by SRB assay; conditions: NCI-H23, 48 h, read-out: Activity
[8] = Cytotoxicity against human RXF393 cells assessed as cell growth at 10 uM after 48 hrs by SRB assay; conditions: RXF 393, 48 h, read-out: Activity
SN12C [9] = assay: Cytotoxicity against human SN12C cells assessed as cell growth at 10 uM after 48 hrs by SRB assay; conditions: read-out: Activity
[10] = Cytotoxicity against human SF268 cells assessed as cell growth at 10 uM after 48 hrs by SRB assay; conditions: SF-268, 48 h, read-out: Activity
[11] = Cytotoxicity against human HL-60(TB) cells assessed as cell growth at 10 uM after 48 hrs by SRB assay; conditions: HL-60, 48 h, read-out: Activity
A549 = assay: Cytotoxicity against human A549 cells assessed as cell growth at 10 uM after 48 hrs by SRB assay; conditions: A549, 48 h, read-out: Activity
[12] = Cytotoxicity against human OVCAR5 cells assessed as cell growth at 10 uM after 48 hrs by SRB assay; conditions: OVCAR-5, 48 h, read-out: Activity
T47D [13] = assay: Cytotoxicity against human T47D cells assessed as cell growth at 10 uM after 48 hrs by SRB assay; conditions: read-out: Activity
[14] = Cytotoxicity against human SW620 cells assessed as cell growth at 10 uM after 48 hrs by SRB assay; conditions: SW-620, 48 h, read-out: Activity
SK-MEL-5 [15] = assay: Cytotoxicity against human SK-MEL-5 cells assessed as cell growth at 10 uM after 48 hrs by SRB assay; conditions: SK-MEL-5, 48 h, read-out: Activity
[16] = Cytotoxicity against human PC3 cells assessed as cell growth at 7.25 uM after 48 hrs by SRB assay; conditions: PC-3, 48 h, read-out: Activity
[17] = Cytotoxicity against human HOP62 cells assessed as cell growth at 7.25 uM after 48 hrs by SRB assay; conditions: HOP-62, 48 h, read-out: Activity
[18] = Cytotoxicity against human DU145 cells assessed as cell growth at 7.25 uM after 48 hrs by SRB assay; conditions: DU-145, 48 h, read-out: Activity
MDA-MB-231 [19] = assay: Cytotoxicity against human MDA-MB-231 cells assessed as cell growth at 7.25 uM after 48 hrs by SRB assay; conditions: MDA-MB-231, 48 h, read-out: Activity
A498 [20] = assay: Cytotoxicity against human A498 cells assessed as cell growth at 7.25 uM after 48 hrs by SRB assay; conditions: A498, 48 h, read-out: Activity
SK-MEL-5 [21] = assay: Cytotoxicity against human SK-MEL-5 cells assessed as cell growth at 7.25 uM after 48 hrs by SRB assay; conditions: SK-MEL-5, 48 h, read-out: Activity
MCF7 = assay: Cytotoxicity against human MCF7 cells assessed as cell growth at 7.25 uM after 48 hrs by SRB assay; conditions: MCF7, 48 h, read-out: Activity
MDA-MB-468 [22] = assay: Cytotoxicity against human MDA-MB-468 cells assessed as cell growth at 7.25 uM after 48 hrs by SRB assay; conditions: MDA-MB-468, 48 h, read-out: Activity
[23] = Cytotoxicity against human OVCAR8 cells assessed as cell growth at 7.25 uM after 48 hrs by SRB assay; conditions: OVCAR-8, 48 h, read-out: Activity
SN12C [24] = assay: Cytotoxicity against human SN12C cells assessed as cell growth at 7.25 uM after 48 hrs by SRB assay; conditions: read-out: Activity
[25] = Cytotoxicity against human BT549 cells assessed as cell growth at 2.13 uM after 48 hrs by SRB assay; conditions: BT-549, 48 h, read-out: Activity
NCI-H322M = assay: Cytotoxicity against human NCI-H322M cells assessed as cell growth at 2.13 uM after 48 hrs by SRB assay; conditions: read-out: Activity
[26] = Cytotoxicity against human SNB75 cells assessed as cell growth at 2.13 uM after 48 hrs by SRB assay; conditions: SNB-75, 48 h, read-out: Activity
[27] = Cytotoxicity against human MOLT4 cells assessed as cell growth at 2.13 uM after 48 hrs by SRB assay; conditions: MOLT-4, 48 h, read-out: Activity
A498 [28] = assay: Cytotoxicity against human A498 cells assessed as cell growth at 2.13 uM after 48 hrs by SRB assay; conditions: A498, 48 h, read-out: Activity
[29] = Cytotoxicity against human SF539 cells assessed as cell growth at 2.13 uM after 48 hrs by SRB assay; conditions: SF-539, 48 h, read-out: Activity
HT-29 = assay: Cytotoxicity against human HT-29 cells assessed as cell growth at 2.13 uM after 48 hrs by SRB assay; conditions: HT-29, 48 h, read-out: Activity
[30] = Cytotoxicity against human HOP92 cells assessed as cell growth at 2.13 uM after 48 hrs by SRB assay; conditions: HOP-92, 48 h, read-out: Activity
T47D [31] = assay: Cytotoxicity against human T47D cells assessed as cell growth at 2.13 uM after 48 hrs by SRB assay; conditions: read-out: Activity
NCI-H522 [32] = assay: Cytotoxicity against human NCI-H522 cells assessed as cell mortality at 2.13 uM after 48 hrs by SRB assay; conditions: NCI-H522, 48 h
[33] = Cytotoxicity against human PC3 cells assessed as cell growth at 2.13 uM after 48 hrs by SRB assay; conditions: PC-3, 48 h, read-out: Activity
MDA-MB-468 [34] = assay: Cytotoxicity against human MDA-MB-468 cells assessed as cell growth at 2.13 uM after 48 hrs by SRB assay; conditions: MDA-MB-468, 48 h, read-out: Activity

Question: What does the source list for `CC(C)C[C@H](NC(=O)[C@H](CCCCN)NC(=O)[C@H](C)NC(=O)[C@H](CC(C)C)NC(=O)[C@H](CCCCN)NC(=O)[C@H](CCCCN)NC(=O)[C@H](C)NC(=O)[C@H](CC(C)C)NC(=O)[C@H](CCCCN)NC(=O)[C@H](C)NC(=O)[C@H](CC(C)C)NC(=O)[C@H](CCCCN)NC(=O)[C@@H](N)CC(=O)O)C(=O)N[C@@H](C)C(=O)N[C@@H](CCCCN)C(=O)N[C@@H](C)C(=O)N[C@@H](CCCCN)C(N)=O`?
Answer: growth at 10 µM [1]: 105%; growth at 10 µM [2]: 97.2%; growth at 10 µM (K562): 99.8%; growth at 10 µM (NCI-H522 [3]): 86.4%; growth at 10 µM (MDA-MB-231 [4]): 109%; mortality at 10 µM (NCI-H226): 1%; growth at 10 µM [5]: 109%; growth at 10 µM [6]: 100%; growth at 10 µM [7]: 98%; growth at 10 µM (NCI-H23): 103%; growth at 10 µM [8]: 110%; growth at 10 µM (SN12C [9]): 99%; growth at 10 µM [10]: 94.7%; growth at 10 µM [11]: 99.5%; growth at 10 µM (A549): 81%; growth at 10 µM [12]: 98.6%; growth at 10 µM (T47D [13]): 113%; growth at 10 µM [14]: 106%; growth at 10 µM (SK-MEL-5 [15]): 101%

Question: Which results are given for `CCCCCCCCCCCCCCCC(=O)NCCCC[C@H](NC(=O)[C@H](C)NC(=O)[C@H](CCCCN)NC(=O)[C@H](C)NC(=O)[C@H](CC(C)C)NC(=O)[C@H](CCCCN)NC(=O)[C@H](C)NC(=O)[C@H](CC(C)C)NC(=O)[C@H](CCCCN)NC(=O)[C@H](CCCCN)NC(=O)[C@H](C)NC(=O)[C@H](CC(C)C)NC(=O)[C@H](CCCCN)NC(=O)[C@H](C)NC(=O)[C@H](CC(C)C)NC(=O)[C@H](CCCCN)NC(=O)[C@@H](N)CC(=O)O)C(N)=O`?
Answer: growth at 7.25 µM [16]: 91.2%; growth at 7.25 µM [17]: 99.8%; growth at 7.25 µM [18]: 123%; growth at 7.25 µM (MDA-MB-231 [19]): 104%; growth at 7.25 µM (A498 [20]): 111%; growth at 7.25 µM (SK-MEL-5 [21]): 102%; growth at 7.25 µM (MCF7): 98.7%; growth at 7.25 µM (MDA-MB-468 [22]): 95.9%; growth at 7.25 µM [23]: 96.4%; growth at 7.25 µM (SN12C [24]): 104%

Question: Which growth at 2.13 µM [25] does the source give for `CCCCCCCCCCCCCCCCNCCO[C@H]1C[C@H](n2cc(C)c(=O)[nH]c2=O)O[C@@H]1C(=O)NCCCC[C@H](NC(=O)[C@H](C)NC(=O)[C@H](CCCCN)NC(=O)[C@H](C)NC(=O)[C@H](CC(C)C)NC(=O)[C@H](CCCCN)NC(=O)[C@H](C)NC(=O)[C@H](CC(C)C)NC(=O)[C@H](CCCCN)NC(=O)[C@H](CCCCN)NC(=O)[C@H](C)NC(=O)[C@H](CC(C)C)NC(=O)[C@H](CCCCN)NC(=O)[C@H](C)NC(=O)[C@H](CC(C)C)NC(=O)[C@H](CCCCN)NC(=O)[C@@H](N)CC(=O)O)C(N)=O` here?
Answer: 113%

Question: And the growth at 2.13 µM (NCI-H322M)?
Answer: 110%

Question: What about the growth at 2.13 µM [26] of the same compound?
Answer: 96.1%

Question: What about the growth at 2.13 µM [27] of the same compound?
Answer: 97.8%

Question: What about the growth at 2.13 µM (A498 [28]) of the same compound?
Answer: 109%

Question: What about the growth at 2.13 µM [29] of the same compound?
Answer: 98.8%

Question: What about the growth at 2.13 µM (HT-29) of the same compound?
Answer: 102%

Question: And the growth at 2.13 µM [30]?
Answer: 86.8%

Question: And the growth at 2.13 µM (T47D [31])?
Answer: 91.6%

Question: What about the mortality at 2.13 µM (NCI-H522 [32]) of the same compound?
Answer: 11%

Question: And the growth at 2.13 µM [33]?
Answer: 92.3%

Question: What about the growth at 2.13 µM (MDA-MB-468 [34]) of the same compound?
Answer: 100%
